The values that follow come from US20220363665A1, “QUINOLINE COMPOUNDS FOR THE TREATMENT OF AUTOIMMUNE DISEASE” (Hoffmann-La Roche Inc., priority 2019, published 2022).

One series has as its target T1, human TLR7 (Homo sapiens, UniProt Q9NYK1).
T1 construct: host or cells: HEK293 (HEK-Blue hTLR7)
T1 sequence (Q9NYK1 27-1049): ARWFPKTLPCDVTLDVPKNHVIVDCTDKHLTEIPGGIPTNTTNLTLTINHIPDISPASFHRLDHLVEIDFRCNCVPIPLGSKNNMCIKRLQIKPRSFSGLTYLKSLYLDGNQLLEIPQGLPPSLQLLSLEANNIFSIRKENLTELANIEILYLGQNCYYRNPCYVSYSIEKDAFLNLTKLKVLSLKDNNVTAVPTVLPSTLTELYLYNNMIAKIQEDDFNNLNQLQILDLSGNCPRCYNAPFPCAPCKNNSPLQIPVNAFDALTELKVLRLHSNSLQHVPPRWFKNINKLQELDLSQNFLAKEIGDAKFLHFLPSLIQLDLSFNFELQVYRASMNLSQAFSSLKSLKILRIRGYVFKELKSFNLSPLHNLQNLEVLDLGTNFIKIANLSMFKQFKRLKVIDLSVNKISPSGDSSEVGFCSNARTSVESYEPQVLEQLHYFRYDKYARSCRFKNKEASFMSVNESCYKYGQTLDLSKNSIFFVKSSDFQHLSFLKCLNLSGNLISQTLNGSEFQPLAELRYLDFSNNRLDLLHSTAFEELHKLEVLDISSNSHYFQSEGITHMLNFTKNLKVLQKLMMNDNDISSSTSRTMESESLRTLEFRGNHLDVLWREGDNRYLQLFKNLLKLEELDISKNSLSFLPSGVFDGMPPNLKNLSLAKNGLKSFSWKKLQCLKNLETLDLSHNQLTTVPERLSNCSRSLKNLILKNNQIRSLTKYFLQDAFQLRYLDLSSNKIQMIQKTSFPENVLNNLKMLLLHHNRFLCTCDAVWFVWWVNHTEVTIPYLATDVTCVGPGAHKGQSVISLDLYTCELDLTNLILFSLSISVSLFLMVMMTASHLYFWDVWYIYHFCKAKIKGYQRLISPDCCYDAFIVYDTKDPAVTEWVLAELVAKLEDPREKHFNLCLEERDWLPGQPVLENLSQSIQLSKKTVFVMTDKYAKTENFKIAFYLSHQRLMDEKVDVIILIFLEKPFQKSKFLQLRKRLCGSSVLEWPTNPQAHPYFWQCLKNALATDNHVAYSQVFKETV
The series is described as follows: HEK293-Blue-hTLR-7 cells assay (SEAP reporter, R848 stimulation). The following applies: HEK293-Blue-hTLR7 cells, R848, 20 hrs. The class given is cell-based. The procedure:
The following tests were carried out in order to determine the activity of the compounds of formula (I) in HEK293-Blue-hTLR-7/8/9 cells assay.
HEK293-Blue-hTLR-7 Cells Assay:
A stable HEK293-Blue-hTLR-7 cell line was purchased from InvivoGen (Cat. #: hkb-htlr7, San Diego, Calif. USA). These cells were originally designed for studying the stimulation of human TLR7 by monitoring the activation of NF-κB. A SEAP (secreted embryonic alkaline phosphatase) reporter gene was placed under the control of the IFN-β minimal promoter fused to five NF-κB and AP-1-binding sites. The SEAP was induced by activating NF-κB and AP-1 via stimulating HEK-Blue hTLR7 cells with TLR7 ligands. Therefore the reporter expression was declined by TLR7 antagonist under the stimulation of a ligand, such as R848 (Resiquimod), for incubation of 20 hrs. The cell culture supernatant SEAP reporter activity was determined using QUANTI-Blue™ kit (Cat. #: rep-qbl, Invivogen, San Diego, Calif., USA) at a wavelength of 640 nm, a detection medium that turns purple or blue in the presence of alkaline phosphatase.
HEK293-Blue-hTLR7 cells were incubated at a density of 250,000˜450,000 cells/mL in a volume of 170 μL in a 96-well plate in Dulbecco's Modified Eagle's medium (DMEM) containing 4.5 g/L glucose, 50 U/mL penicillin, […], […], 2 mM L-glutamine, 10% (v/v) heat-inactivated fetal bovine serum with addition of 20 μL A test compound in a serial dilution in the presence of final DMSO at 1% and 10 μL of 20 uM R848 in above DMEM, perform incubation under 37° C. in a CO2 incubator for 20 hrs. Then 20 μL of the supernatant from each well was incubated with 180 μQuanti-blue substrate solution at 37° C. for 2 hrs and the absorbance was read at 620˜655 nm using a spectrophotometer. The signalling pathway that TLR7 activation leads to downstream NF-κB activation has been widely accepted, and therefore similar reporter assay was modified for evaluating TLR7 antagonist.

The next series is described as follows: LYSA solubility assay. The class given is physicochemical. The following applies: for solubility thermodynamic: 0.05 M phosphate buffer, pH 6.5, aqueous buffer, thermodynamic from solid; for LYSA: 0.05 M phosphate buffer (pH 6.5). The procedure:
LYSA study is used to determine the aqueous solubility of tested compounds. Samples are prepared in duplicate from 10 mM DMSO stock solution. After evaporation of DMSO with a centrifugal vacuum evaporator, compounds are dissolved in a 0.05 M phosphate buffer (pH 6.5), stirred for one hr and shaken for two hrs. After one night, the solutions are filtered using a microtiter filter plate. Then the filtrate and its 1/10 dilution are analyzed by HPLC-UV. In addition, a four-point calibration curve is prepared from the 10 mM stock solutions and used for the solubility determination of the compounds. The results are in μg/mL. In case the percentage of sample measured in solution after evaporation divided by the calculated maximum of sample amount is bigger than 80%, the solubility is reported as bigger than this value.

The structures appear in SMILES notation. pIC50: −log10 of the molar value.

For `C[C@@H]1CN(c2ccc(C(F)(F)F)c3ncccc23)C[C@H](C(=O)NC2C[C@H]3C[C@@H]2CN3)O1` (stereo partly drawn) [Example 44], the pIC50 (as a rule, the IC50 on a negative log10 scale, so that one unit is a factor of ten) against human TLR7 was 7.74. For the same compound, in the series “LYSA solubility assay”, the solubility (thermodynamic) (in general, solubility found after equilibrating the solid with the medium) was above 600 µg/mL. For `C[C@@H]1CN(c2ccc(C(F)(F)F)c3ncccc23)C[C@H](C(=O)NC2CNC[C@@H]2F)O1` (stereo partly drawn) [Example 2, cis-(2R,6R)-N-(4-fluoropyrrolidin-3-yl)-6-methyl-4-[8-(trifluoromethyl)-5-quinolyl]morpholine-2-carboxamide] the same measures were 7.28 and above 585 µg/mL. In the same order, the values of `C[C@@H]1CN(c2ccc(C(F)(F)F)c3ncccc23)C[C@H](C(=O)NCC2CNCCO2)O1` (stereo partly drawn) [Example 48, (2R,6R)-6-methyl-N-(morpholin-2-ylmethyl)-4-[8-(trifluoromethyl)-5-quinolyl]morpholine-2-carboxamide] are 8.40 and above 625 µg/mL. For `C[C@@H]1CN(c2ccc(C(F)(F)F)c3ncccc23)C[C@H](C(=O)NC[C@@H]2C[C@@H](F)CN2)O1` [Example 27, (2R,6R)-N-[[(2S,4R)-4-fluoropyrrolidin-2-yl]methyl]-6-methyl-4-[8-(trifluoromethyl)-5-quinolyl]morpholine-2-carboxamide] the same measures were 7.22 and above 585 µg/mL. In the case of `C[C@@H]1CN(c2ccc([N+](=O)[O-])c3ncccc23)C[C@H](C(=O)NCC2CN(C)CCO2)O1` (stereo partly drawn) [Example 18, (2R,6R)-6-methyl-N-[(4-methylmorpholin-2-yl)methyl]-4-(8-nitro-5-quinolyl)morpholine-2-carboxamide], the pIC50 against human TLR7 is 8.30. For the same compound, the solubility (thermodynamic) in the series “LYSA solubility assay” was above 530 µg/mL. The compound `Cc1ccc(N2C[C@@H](C)C[C@@H](N)C2)c2cccnc12` [Example 15, (3R,5S)-5-methyl-1-(8-methyl-5-quinolyl)piperidin-3-amine] showed a pIC50 at human TLR7 of 7.52. `C[C@@H]1CN(c2ccc(C(F)(F)F)c3ncccc23)C[C@H](C(=O)NCC2CCCCN2C)O1` (stereo partly drawn) [Example 4, (2R,6R)-6-methyl-N-[(1-methyl-2-piperidyl)methyl]-4-[8-(trifluoromethyl)-5-quinolyl]morpholine-2-carboxamide]: the negative-log IC50 (pIC50) against human TLR7 is 8.22. The compound further gave a thermodynamic solubility in “LYSA solubility assay” above 660 µg/mL.

`C[C@@H]1CN(c2ccc(C(F)(F)F)c3ncccc23)C[C@H](C(=O)NC2CC3CNCC(C3)C2)O1` (stereo partly drawn) [Example 37, (2R,6R)-N-(3-azabicyclo[3.3.1]nonan-7-yl)-6-methyl-4-[8-(trifluoromethyl)-5-quinolyl]morpholine-2-carboxamide]: the pIC50 against human TLR7 is 8.70. The compound also came in with a solubility (thermodynamic) in the series “LYSA solubility assay” above 660 µg/mL. For `C[C@@H]1CN(c2ccc(C(F)(F)F)c3ncccc23)C[C@H](C(=O)NC2CC3CCC(C2)N3)O1` (single isomer, unassigned) [Example 47A] the same measures were above 8.52 and above 620 µg/mL.

Turning to `CC(NC(=O)[C@H]1CN(c2ccc(C(F)(F)F)c3ncccc23)C[C@@H](C)O1)C1CN(C)CCO1` (single isomer, unassigned) [Example 35A], the pIC50 on human TLR7 was 7.55. The compound further had a solubility (thermodynamic) in “LYSA solubility assay” above 600 µg/mL.

Compound `C[C@@H]1CN(c2ccc(C(F)(F)F)c3ncccc23)C[C@H](C(=O)NC2C3CNCC2COC3)O1` (single isomer, unassigned) [Example 46B] had a pIC50 on human TLR7 of 7.68. Further, the LYSA in “LYSA solubility assay” was above 667.0 µg/mL. `C[C@@H]1CN(c2ccc(Cl)c3ncccc23)C[C@H](C(=O)NCC2CN(C)CCO2)O1` (stereo partly drawn) [Example 26, (2R,6R)-4-(8-chloro-5-quinolyl)-6-methyl-N-[(4-methylmorpholin-2-yl)methyl]morpholine-2-carboxamide] had a pIC50 on human TLR7 of 7.64. This compound gave a thermodynamic solubility in “LYSA solubility assay” above 520 µg/mL. For `Cc1ccc(N2C[C@@H](C)O[C@@H](C(=O)NCC3CN(C)CCO3)C2)c2cccnc12` (stereo partly drawn) [Example 17, (2R,6R)-6-methyl-N-[(4-methylmorpholin-2-yl)methyl]-4-(8-methyl-5-quinolyl)morpholine-2-carboxamide] the same measures were 6.85 and above 485 µg/mL. `C[C@@H]1CN(c2ccc(C(F)(F)F)c3ncccc23)C[C@H](C(=O)NC2CC3CCCC(C2)N3)O1` (single isomer, unassigned) [Example 34B] gave a pIC50 against human TLR7 of 8.15. For the same compound, in “LYSA solubility assay”, the LYSA is above 610.0 µg/mL. For the compound `C[C@@H]1CN(c2ccc(Cl)c3ncccc23)C[C@H](C(=O)NC2CCCNCC2)O1` (stereo partly drawn) [Example 25, (2R,6R)-N-(azepan-4-yl)-4-(8-chloro-5-quinolyl)-6-methyl-morpholine-2-carboxamide], the pIC50 against human TLR7 is 7.92. In addition, in “LYSA solubility assay”, the thermodynamic solubility was above 470 µg/mL. Turning to `C[C@@H]1CN(c2ccc(C(F)(F)F)c3ncccc23)C[C@H](C(=O)NC2CC3CNCC32)O1` (single isomer, unassigned) [Example 49C], the pIC50 against human TLR7 was 8.10. The compound further displayed an LYSA in the series “LYSA solubility assay” above 710.0 µg/mL.

Regarding `C[C@@H]1CN(c2ccc(C(F)(F)F)c3ncccc23)C[C@H](C(=O)NC2CNCCOC2)O1` (stereo partly drawn) [Example 14, (2R,6R)-6-methyl-N-(1,4-oxazepan-6-yl)-4-[8-(trifluoromethyl)-5-quinolyl]morpholine-2-carboxamide], the pIC50 against human TLR7 was 7.43. The compound further registered a solubility (thermodynamic) in “LYSA solubility assay” above 695 µg/mL. For `C[C@@H]1CN(c2ccc(C(F)(F)F)c3ncccc23)C[C@H](C(=O)NC2CC3CNCC32)O1` (single isomer, unassigned) [Example 49A] the same measures were 7.60 and above 660 µg/mL. In the same order, the values of `C[C@@H]1CN(c2ccc(C(F)(F)F)c3ncccc23)C[C@H](C(=O)N[C@H]2CNC[C@H]2F)O1` (single isomer, unassigned) [Example 2B] are 7.82 and above 625 µg/mL.

Turning to `C[C@@H]1CN(c2ccc(C(F)(F)F)c3ncccc23)C[C@H](C(=O)N2CCC(N)CC2)O1` [Example 12, (4-amino-1-piperidyl)-[(2R,6R)-6-methyl-4-[8-(trifluoromethyl)-5-quinolyl]morpholin-2-yl]methanone], the pIC50 on human TLR7 is 6.82. Moreover, the solubility (thermodynamic) in the series “LYSA solubility assay” was above 665 µg/mL.

The compound `C[C@@H]1CN(c2ccc(Br)c3ncccc23)C[C@H](C(=O)NC2CCN(C)CC2)O1` [Example 42, (2R,6R)-4-(8-bromo-5-quinolyl)-6-methyl-N-(1-methyl-4-piperidyl)morpholine-2-carboxamide] gave a negative-log IC50 (pIC50) on human TLR7 of 8.30. The compound further displayed a thermodynamic solubility in “LYSA solubility assay” above 550 µg/mL. At human TLR7, `C[C@H]1C[C@@H](N)CN(c2ccc(C(F)(F)F)c3ncccc23)C1` [Example 1, (3R,5S)-5-methyl-1-[8-(trifluoromethyl)-5-quinolyl]piperidin-3-amine] had a negative logarithm of the IC50 (pIC50) of 8.30.
